Assay results as given in ChEMBL document CHEMBL6092145, “Recent advances in the design of small molecular drugs with acrylamides covalent warheads” (Bioorg Med Chem, 2024).
Values belong to the compound of their own block, whether it stands above or below them.

Assays:
[1] = test system: NCI-H358; assay: cells; format: functional, cell-based; details: Homo sapiens, NCI-H358, 72 h
Description: Antiproliferative activity against human NCI-H358 cells assessed as reduction in cell growth incubated for 72 hrs by cell-titer glo assay

[2] = clinical; details: human, in vivo, po
Description: Oral bioavailability in human

[3] = biological target: Tyrosine-protein kinase BTK (Homo sapiens, UniProt Q06187)
Description: Inhibition of BTK (unknown origin)

[4] = biological target: Tyrosine-protein kinase Blk (Homo sapiens, UniProt P51451)
Description: Inhibition of BLK (unknown origin)

[5] = test system: NCI-H358; assay: cells; format: functional, cell-based; details: Homo sapiens
Description: Antiproliferative activity against human NCI-H358 cells assessed as reduction in cell viability

[6] = biological target: Epidermal growth factor receptor (Homo sapiens, UniProt P00533)
[7] = biological target: Tyrosine-protein kinase Lck (Homo sapiens, UniProt P06239)
Description: Inhibition of LCK (unknown origin) using TK as substrate incubated for 30 mins by HTRF assay

[8] = biological target: Tyrosine-protein kinase Lyn (Homo sapiens, UniProt P07948)
Chain of Tyrosine-protein kinase Lyn (P07948 whole entry): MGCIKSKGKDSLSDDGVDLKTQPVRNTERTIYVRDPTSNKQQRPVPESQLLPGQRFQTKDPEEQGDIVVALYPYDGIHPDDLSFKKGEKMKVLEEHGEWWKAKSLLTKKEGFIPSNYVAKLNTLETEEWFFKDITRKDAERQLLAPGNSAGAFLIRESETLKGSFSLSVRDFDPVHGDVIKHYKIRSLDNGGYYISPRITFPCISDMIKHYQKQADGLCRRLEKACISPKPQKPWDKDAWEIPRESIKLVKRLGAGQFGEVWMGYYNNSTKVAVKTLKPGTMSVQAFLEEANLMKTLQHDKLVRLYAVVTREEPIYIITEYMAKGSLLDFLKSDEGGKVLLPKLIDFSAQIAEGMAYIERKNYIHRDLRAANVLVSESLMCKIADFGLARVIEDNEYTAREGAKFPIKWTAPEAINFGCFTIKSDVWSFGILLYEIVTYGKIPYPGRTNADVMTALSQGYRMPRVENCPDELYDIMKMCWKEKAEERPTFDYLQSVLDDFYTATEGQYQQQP
Description: Inhibition of LYN (unknown origin)

Chain of Tyrosine-protein kinase Blk (P51451 whole entry): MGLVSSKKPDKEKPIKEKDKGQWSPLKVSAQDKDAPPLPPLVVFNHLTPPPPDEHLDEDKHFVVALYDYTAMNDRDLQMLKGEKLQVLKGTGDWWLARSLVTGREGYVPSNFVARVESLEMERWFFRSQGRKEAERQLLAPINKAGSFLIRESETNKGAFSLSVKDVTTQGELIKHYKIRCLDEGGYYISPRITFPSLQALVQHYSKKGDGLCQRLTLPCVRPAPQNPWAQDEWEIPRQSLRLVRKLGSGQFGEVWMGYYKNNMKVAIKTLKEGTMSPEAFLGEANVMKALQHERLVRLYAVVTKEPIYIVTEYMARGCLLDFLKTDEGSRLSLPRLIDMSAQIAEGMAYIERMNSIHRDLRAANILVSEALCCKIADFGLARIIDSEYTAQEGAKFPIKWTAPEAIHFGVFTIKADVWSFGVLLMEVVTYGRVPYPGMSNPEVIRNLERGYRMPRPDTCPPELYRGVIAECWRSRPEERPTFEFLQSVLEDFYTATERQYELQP
Chain of Epidermal growth factor receptor (P00533 whole entry): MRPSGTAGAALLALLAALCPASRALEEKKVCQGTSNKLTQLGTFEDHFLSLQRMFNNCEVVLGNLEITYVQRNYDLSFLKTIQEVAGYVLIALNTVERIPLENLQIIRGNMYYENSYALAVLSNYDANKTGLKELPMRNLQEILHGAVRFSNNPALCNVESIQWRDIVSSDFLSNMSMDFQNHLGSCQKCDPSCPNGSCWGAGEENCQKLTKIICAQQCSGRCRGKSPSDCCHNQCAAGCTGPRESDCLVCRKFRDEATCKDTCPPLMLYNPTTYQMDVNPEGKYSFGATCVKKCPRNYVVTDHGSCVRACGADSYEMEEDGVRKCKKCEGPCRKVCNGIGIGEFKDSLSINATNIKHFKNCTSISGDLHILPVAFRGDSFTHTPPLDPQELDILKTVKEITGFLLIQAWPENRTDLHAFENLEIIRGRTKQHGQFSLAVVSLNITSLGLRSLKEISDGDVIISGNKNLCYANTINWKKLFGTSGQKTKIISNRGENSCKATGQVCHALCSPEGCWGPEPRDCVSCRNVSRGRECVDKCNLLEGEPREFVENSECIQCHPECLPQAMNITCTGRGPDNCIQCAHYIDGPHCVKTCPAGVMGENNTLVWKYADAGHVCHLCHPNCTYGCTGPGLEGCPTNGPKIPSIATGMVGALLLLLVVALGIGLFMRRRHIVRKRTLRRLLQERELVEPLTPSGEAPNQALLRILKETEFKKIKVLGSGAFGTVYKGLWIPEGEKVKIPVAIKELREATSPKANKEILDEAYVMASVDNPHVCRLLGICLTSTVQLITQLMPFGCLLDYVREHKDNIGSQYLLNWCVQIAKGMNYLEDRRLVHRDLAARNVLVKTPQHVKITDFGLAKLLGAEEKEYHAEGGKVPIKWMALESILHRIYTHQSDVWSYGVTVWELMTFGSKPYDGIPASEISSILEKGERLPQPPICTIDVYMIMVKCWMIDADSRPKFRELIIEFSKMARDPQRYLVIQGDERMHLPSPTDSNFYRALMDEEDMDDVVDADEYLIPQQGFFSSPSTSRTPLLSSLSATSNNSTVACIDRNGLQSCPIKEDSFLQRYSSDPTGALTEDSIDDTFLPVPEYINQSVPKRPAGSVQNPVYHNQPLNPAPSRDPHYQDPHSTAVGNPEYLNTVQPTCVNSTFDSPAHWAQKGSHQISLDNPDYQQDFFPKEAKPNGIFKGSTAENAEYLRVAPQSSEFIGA
Chain of Tyrosine-protein kinase Lck (P06239 whole entry): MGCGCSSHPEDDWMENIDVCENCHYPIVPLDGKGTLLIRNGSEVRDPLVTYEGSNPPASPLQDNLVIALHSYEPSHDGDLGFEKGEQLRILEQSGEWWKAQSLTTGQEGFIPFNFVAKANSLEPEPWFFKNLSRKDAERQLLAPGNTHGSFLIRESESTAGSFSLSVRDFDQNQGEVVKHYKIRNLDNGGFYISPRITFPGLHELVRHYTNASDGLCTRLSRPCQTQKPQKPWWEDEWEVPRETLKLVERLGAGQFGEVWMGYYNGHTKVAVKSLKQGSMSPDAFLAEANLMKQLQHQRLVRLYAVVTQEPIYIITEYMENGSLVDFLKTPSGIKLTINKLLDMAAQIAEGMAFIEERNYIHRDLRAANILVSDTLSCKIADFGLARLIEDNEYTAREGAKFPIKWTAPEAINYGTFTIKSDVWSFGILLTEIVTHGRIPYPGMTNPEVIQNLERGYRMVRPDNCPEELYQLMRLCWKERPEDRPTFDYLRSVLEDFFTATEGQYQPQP
Chain of Tyrosine-protein kinase BTK (Q06187 whole entry): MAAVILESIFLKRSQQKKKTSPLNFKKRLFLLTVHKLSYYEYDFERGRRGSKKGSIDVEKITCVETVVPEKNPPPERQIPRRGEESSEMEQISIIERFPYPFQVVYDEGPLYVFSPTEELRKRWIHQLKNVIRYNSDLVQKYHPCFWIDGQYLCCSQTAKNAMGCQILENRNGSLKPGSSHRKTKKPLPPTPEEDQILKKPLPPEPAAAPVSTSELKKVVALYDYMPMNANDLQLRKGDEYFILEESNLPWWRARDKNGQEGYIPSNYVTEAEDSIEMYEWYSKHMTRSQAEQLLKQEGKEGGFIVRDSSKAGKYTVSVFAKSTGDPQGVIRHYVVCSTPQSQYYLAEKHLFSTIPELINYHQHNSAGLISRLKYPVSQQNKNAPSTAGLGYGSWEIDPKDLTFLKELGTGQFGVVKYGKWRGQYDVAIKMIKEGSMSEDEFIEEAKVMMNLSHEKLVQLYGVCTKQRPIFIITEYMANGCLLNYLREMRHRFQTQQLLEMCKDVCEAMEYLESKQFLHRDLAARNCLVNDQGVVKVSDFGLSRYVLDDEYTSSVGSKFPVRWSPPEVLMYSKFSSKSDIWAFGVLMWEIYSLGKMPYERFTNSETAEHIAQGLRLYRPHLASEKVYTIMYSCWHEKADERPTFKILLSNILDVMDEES

IC50 [4]: > 1000 nM
SMILES: C=CC(=O)N1CCN(C(=O)CNc2cc(Cl)c(Cl)cc2OC)CC1

IC50 [4]: > 10000 nM
SMILES: CN(C)CCSSCCNC(=O)C1CCN(C(=O)CSc2ccc(Cl)cc2)CC1

IC50 [4]: > 10000 nM
SMILES: CN(C)CCSSCCC(=O)Nc1cc(-c2cccs2)[nH]n1

IC50 [6]: > 10000 nM
SMILES: CN(C)CCSSCCC(=O)NC1CCN(C(=O)COc2ccc(Cl)cc2Cl)CC1

The remaining lines, values behind:

SMILES: C=CC(=O)N1CCN(c2nc(OC[C@@H]3CCCN3C)nc3c2CCN(c2cccc4cccc(Cl)c24)C3)C[C@@H]1CC#N
IC50 [1]: 1 nM | bioavailability [2]: 16.9%

SMILES: C=CC(=O)NC1Cn2c(c(-c3ccc(Oc4ccccc4)cc3)c3c(N)ncnc32)C1=C (centres undefined)
IC50 [3]: 0.4 nM | IC50 [4]: 0.5 nM

SMILES: C=CC(=O)N1CCN(c2nc(=O)n(-c3c(C)ccnc3C(C)C)c3nc(-c4c(O)cccc4F)c(F)cc23)[C@@H](C)C1 [SOTORASIB]
IC50 [5]: 68 nM

SMILES: C=CC(=O)N1CCN(c2ncnc3c(F)c(-c4c(O)cccc4F)c(Cl)cc23)CC1
IC50 [5]: 939 nM

SMILES: C=CC(=O)N1CC(N2CCN(C(=O)CNc3cc(C4(C)CC4)c(Cl)cc3O)CC2)C1
IC50 [5]: 250 nM

SMILES: C=C(F)C(=O)N1CCN(c2nc(OC[C@@H]3CCCN3CCCOCCC(=O)N[C@H](C(=O)N3C[C@H](O)C[C@H]3C(=O)NCc3ccc(-c4scnc4C)cc3)C(C)(C)C)nc3c2CCN(c2cccc4cccc(Cl)c24)C3)C[C@@H]1CC#N
IC50 [1]: 520 nM

SMILES: Nc1ncnc2c1c(-c1ccc(Oc3ccccc3)cc1)nn2C1CCCC1
IC50 [7]: 4.6 nM | IC50 [8]: 2.5 nM
